We go through 1 compound from PMC5389830, “Longitudinal monitoring of Gaussia and Nano luciferase activities to concurrently assess ER calcium homeostasis and ER stress in vivo” (PLoS ONE, 2017).

Structures are written as SMILES.

The target in this assay is T1, GLuc (Gaussia luciferase) (Gaussia princeps (in: crustaceans), UniProt Q9BLZ2).
T1 construct: secreted GLuc without SERCaMP peptide, in culture medium of transfected SH-SY5Y cells
T1 sequence (Q9BLZ2 18-185): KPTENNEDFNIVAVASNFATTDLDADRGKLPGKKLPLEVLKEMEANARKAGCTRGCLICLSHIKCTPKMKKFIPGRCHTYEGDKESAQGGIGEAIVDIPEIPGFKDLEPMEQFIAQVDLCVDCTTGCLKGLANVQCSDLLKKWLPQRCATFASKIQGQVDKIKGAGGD
Kind of assay: luminescence, culture medium of transfected SH-SY5Y cells. Format: biochemical. Particulars: 8 μM coelenterazine; flash kinetics.

In the case of `Oc1ccc(Cc2nc3c(Cc4ccccc4)nc(-c4ccc(O)cc4)cn3c2O)cc1` [coelenterazine], the “luminescence, culture medium of transfected SH-SY5Y cells” value was “GLuc and secNLuc both showed activity towards CTZ, with GLuc exhibiting flash kinetics”.
